Test results as given in patent publication US11738031B2, “Compositions and methods for preventing or treating muscle conditions” (The Board of Trustees of the Leland Stanford Junior …, priority 2017, dated 2023).

Test system: tibialis anterior (TA) muscle
Experiment: Cardiotoxin muscle injury, TA histology (PAX7, myofiber cross-sectional area)
Assay type: in vivo, mouse
Settings: for effect on endogenous MuSCs in the absence of injury: no tissue damage; for increase in endogenous PAX7-expressing MuSCs / distribution of myofiber cross-sectional area: young mice; for increase in endogenous PAX7-expressing MuSCs: bolus three days after injury, fourteen days post injury; for distribution of myofiber cross-sectional area: day 14 post-cardiotoxin injury
Experimental: Muscle injury: We used an injury model entailing intramuscular injection of 10 μl of notexin (10 μg ml^−1; Latoxan) or cardiotoxin (10 μM; Latoxan) into the TA muscle. For cryoinjury, an incision was made in the skin overlying the TA muscle and a copper probe, chilled in liquid nitrogen, was applied to the TA muscle for three 10 s intervals, allowing the muscle to thaw between each application of the cryoprobe. When indicated, 48 hr after injury either 16,16-Dimethyl Prostaglandin E2 (dmPGE2) (13 nmol, Tocris, catalog #4027) or vehicle control (PBS) was injected into the TA muscle. The contralateral TA was used as an internal control. We collected tissues 14 days post-injury for analysis.
Tissue histology: We collected and prepared recipient TA muscle tissues for histology as previously described^5,6. We incubated transverse sections with anti-LAMININ (Millipore, clone A5, catalog #05-206, 1:200), and anti-PAX7 (Santa Cruz Biotechnology, catalog #sc-81648, 1:50) primary antibodies and then with AlexaFluor secondary Antibodies (Jackson ImmunoResearch Laboratories, 1:200). We counterstained nuclei with DAPI (Invitrogen). We acquired images with an AxioPlan2 epifluorescent microscope (Carl Zeiss Microimaging) with Plan NeoFluar 10×/0.30 NA or 20×/0.75 NA objectives (Carl Zeiss) and an ORCA-ER digital camera (Hamamatsu Photonics) controlled by the SlideBook (3i) software. The images were cropped using Adobe Photoshop with consistent contrast adjustments across all images from the same experiment. The image composites were generated using Adobe Illustrator. We analyzed the number of PAX7 positive cells using the MetaMorph Image Analysis software (Molecular Devices), and the fiber area using the Baxter Algorithms for Myofiber Analysis that identified the fibers and segmented the fibers in the image to analyze the area of each fiber. For PAX7 quantification we examined serial sections spanning a depth of at least 2 mm of the TA. For fiber area at least 10 fields of LAMININ-stained myofiber cross-sections encompassing over 400 myofibers were captured for each mouse as above. Data analyses were blinded. The researchers performing the imaging acquisition and scoring were unaware of treatment condition given to sample groups analyzed.
We used an injury model entailing intramuscular injection of 10 μl of notexin (10 μg ml^−1; Latoxan, catalog #L8104) or cardiotoxin (10 μM; Latoxan, catalog #L8102) into the Tibialis anterior (TA) muscle. For cryoinjury, an incision was made in the skin overlying the TA muscle and a copper probe, chilled in liquid nitrogen, was applied to the TA muscle for three 10 s intervals, allowing the muscle to thaw between each application of the cryoprobe. When indicated, 48 hr after injury either 16,16-Dimethyl Prostaglandin E2 (dmPGE2) (13 nmol, Tocris, catalog #4027), Indomethacin (35 μg, Sigma, catalog #17378) or vehicle control (PBS) was injected into the TA muscle. The contralateral TA was used as an internal control, except for the force measurement experiments where each mouse had both legs injured with the same condition and independent mice were used for each condition.
We collected and prepared recipient TA muscle tissues for histology as previously described (26, 27). For mouse injury assays we incubated transverse sections with Rabbit polyclonal anti-PGE2 (abcam, Catalog #ab2318, 1:100) Rat polyclonal anti-Laminin (Clone A5) (EMD Millipore, Catalog #05-206, 1:200), Mouse monoclonal anti-Pax7 (Santa Cruz, Catalog #sc-81648, 1:50), AlexaFluor 647-conjugated wheat germ agglutinin (WGA) antibody (W32466, Thermo Fisher Scientific), Rabbit polyclonal anti-GFP (A11122, Thermo Fisher Scientific, 1:500) and Mouse monoclonal anti-Embryonic Myosin Heavy Chain (DSHB, Catalog #F1.652, 1:10) primary antibodies and then with AlexaFluor secondary Antibodies (Jackson ImmunoResearch Laboratories, 1:500). We counterstained nuclei with DAPI (Invitrogen). […]

| Structure (SMILES) | myofiber sizes (aged mice, fourteen days post-injury) | increase in the number of endogenous MuSCs (aged mice, single dmPGE2 injection, fourteen days post-injury) | effect on endogenous MuSCs in the absence of injury | increase in endogenous PAX7-expressing MuSCs | distribution of myofiber cross-sectional area | muscle mass of treated TA (day 14 post-injury) |
| --- | --- | --- | --- | --- | --- | --- |
| CCCCC(C)(C)[C@H](O)/C=C/[C@H]1[C@H](O)CC(=O)[C@@H]1C/C=C\CCCC(=O)O [dmPGE2, 16,16-dimethyl prostaglandin E2] | concomitant increase in myofiber sizes | 24±2% | no effect | 60±15% | shifted toward larger sizes | – |
| CCCCC[C@H](O)/C=C/[C@H]1[C@H](O)CC(=O)[C@@H]1C/C=C\CCCC(=O)O [PGE2, prostaglandin E2] | – | – | no difference from vehicle-injected controls | 65±7% | striking shift in the distribution of myofibers from smaller toward larger sizes | did not increase |
